Experimental data taken from patent US20200246364A1, “MEDICAL APPLICATION OF COMPOSITION OF FRUCTOSE-1,6-BISPHOSPHATE AND BLOOD CONCENTRATION STABILIZER THEREOF” (ZHEJIANG UNIVERSITY, priority 2017, published 2020).

Columns and labels:
KNS-89 [1] = experiment: Intracellular glycolytic intermediates (LC-MS/MS); type: cell-based, human; settings: KNS-89, 1.6 mM, 36 h
glioma cells KNS-89 = experiment: Lactic acid released by glioma cells (glycolysis); type: cell-based, human
Experimental: (§2) Human glioma cell strains (U87-MG, KNS-89, SHG-44) were respectively incubated in culture media containing 0.8 mM of trisodium fructose-1,6-bisphosphate salt, and 1.6 mM of trisodium fructose-1,6-bisphosphate salt, and 1.6 mM of 2-deoxyglucose, and the contents of lactic acid as the final glycolytic product released by the cells in the culture media were measured after 12 h, 24 h, 36 h, and 48 h. […] Human glioma cell strain (U87-MG) was incubated in the culture medium containing 0.8 mM of trisodium fructose-1,6-bisphosphate salt for 1 h, 3 h, 6 h, 12 h, 24 h, 36 h, and 48 h, and level changes of key metabolic enzymes in the glycolytic pathway of cells were measured by Western Blot at the respective time points.

U87-MG = experiment: Western Blot of key glycolytic enzymes; type: cell-based, human; settings: 0.8 mM, 1 h to 48 h
Experimental: as §2

KNS-89 [2] = experiment: Mitochondrial oxidative phosphorylation in glioma cells (ATP/ADP, NADH/NAD+, ATP); type: cell-based, human
C6 [3] = experiment: Reactive oxygen species and mitochondrial membrane potential; type: cell-based, rat; settings: C6, 0.8 mM
C6 [4] = experiment: Glutathiones and NADPH/NADP+ (LC-MS/MS); type: cell-based, rat; settings: C6, 1.6 mM, 36 h
Experimental: (§1) Rat glioma cell strain (C6) and human glioma cell strain (KNS-89, SHG-44) were respectively cultured in a medium containing 1.6 mM of trisodium fructose-1,6-bisphosphate for 36 h, and important antioxidants in cells were measured by liquid-mass spectrometry (LC-MS/MS).

KNS-89 [5] = experiment: Glutathiones and NADPH/NADP+ (LC-MS/MS); type: cell-based, human; settings: KNS-89, 1.6 mM, 36 h
Experimental: as §1

SHG-44 = experiment: Glutathiones and NADPH/NADP+ (LC-MS/MS); type: cell-based, human; settings: SHG-44, 1.6 mM, 36 h
Experimental: as §1

[6] = system: fructose-1,6-bisphosphatase 1; experiment: Kidney protein level of fructose-1,6-bisphosphatase 1 after 14 days treatment (Western Blot); type: in vivo; settings: SD rats, 14 days i.g.; FBP 500 mg/kg, metformin 150 mg/kg, sitagliptin 20 mg/kg; vs control group
Experimental: 180-200 g SD rats were divided into 4 groups: a saline control group, a trisodium fructose-1,6-bisphosphate hydrate group (500 mg/kg, i.g), a metformin group (150 mg/kg, i.g) or a sitagliptin group (20 mg/kg, i.g), and a trisodium fructose-1,6-bisphosphate and metformin or sitagliptin combination group, 5 rats in each group. All groups were intragastrically treated, metformin or sitagliptin was administrated 0.5 h before fructose-1,6-bisphosphate, and this was repeated in 14 consecutive days. At 3 hours after the last intragastric treatment with fructose-1,6-bisphosphate, rat blood was collected to detect the blood concentration of FBP, kidney tissue was taken and the protein level of fructose-1,6-bisphosphatase 1 was measured by Western Blot.

HCT-8 = experiment: Cell viability, Sulforhodamine B (SRB) staining; type: cell-based, human; settings: Homo sapiens, HCT-8, 72 h, FBP 0.8 mM
Experimental: Human intestinal cancer cell strains SW620 and HCT-8, which had been incubated for 24 hours, were respectively incubated in a medium containing 0.8 mM of trisodium fructose-1,6-bisphosphate, a medium containing 0.2 mM of metformin/100 μM of sitagliptin, and a medium containing 0.8 mM of trisodium fructose-1,6-bisphosphate and 0.2 mM of metformin/100 μM of sitagliptin for 72 h. A control group (Con) was not treated with the agent. Cell viability was determined by Sulforhodamine B (SRB) staining analysis method.

Huh-7 = experiment: Cell viability, Sulforhodamine B (SRB) staining; type: cell-based, human; settings: Homo sapiens, Huh-7, 72 h, FBP 0.8 mM
Experimental: Human liver cancer cell strains Bel-7402 and huh-7, which had been incubated for 24 hours, were respectively incubated in a medium containing 1.6 mM or 0.8 mM of trisodium fructose-1,6-bisphosphate, a medium containing 0.2 mM of metformin or 25 μM of sitagliptin, and a medium containing 0.8 mM of trisodium fructose-1,6-bisphosphate and 0.2 mM of metformin/25 μM of sitagliptin for 72 h. A control group (Con) was not treated with the agent. Cell viability was determined by Sulforhodamine B (SRB) staining analysis method.

[7] = Weight gain and fat accumulation caused by high-fat diet; type: in vivo, ICR mice; settings: high-fat diet mice
Experimental: 40 ICR male mice (17-19 g/per mouse) were divided into 2 groups. […] The animals of the normal group (Naive) were still fed with the basic feed, and the model animals were equally divided into 4 groups and were further fed with the high-fat diet. In addition, according to the amount of water the mice had consumed, a certain dose of the agent was dissolved in drinking water. The animals in the model group (Model) were fed with the purified water, the animals in the fructose-1,6-bisphosphate group were fed with water containing 0.18% of 8-molecule hydrate of sodium fructose-1,6-bisphosphate (equivalent to FBP 300 mg/kg), the animals in the sitagliptin group were fed with water containing 0.012% of sitagliptin phosphate salt (equivalent to STG 20 mg/kg), and the animals in the combination group were fed with water containing FBP 500 mg/kg+STG 20 mg/kg. The treatment lasted continuously for 6 weeks, the body weight, food intake and water intake were measured per week, the body weight and body length (CM) were measured on the last day of the last week, and a Lee's INDEX (Lee's INDEX=body weight (g)^(1/3) * 1000/body length (cm)) was calculated to evaluate the state of animal obesity. Then, the animals were sacrificed by cervical vertebra dislocation and the mice were dissected, the epididymal fat pad was taken and weighed, and a fat coefficient was calculated to further investigate the degree of obesity of the mice.

[8] = healthy volunteers, intravenous infusion 250 mg/kg, cited from earlier work
chronic epilepsy in rats = settings: administered intragastrically; cited from earlier work

O=C(COP(=O)(O)O)[C@@H](O)[C@H](O)[C@H](O)COP(=O)(O)O [FBP, fructose-1,6-bisphosphate]
Increase folds of intracellular DHAP (compared with the control group) (KNS-89 [1]): 8.74 folds
Increase folds of intracellular F6P (compared with the control group) (KNS-89 [1]): 1.89 folds
Increase folds of intracellular FBP (compared with the control group) (KNS-89 [1]): 21.97 folds
Increase folds of intracellular GAP (compared with the control group) (KNS-89 [1]): 19.75 folds
Increase folds of intracellular PGA (compared with the control group) (KNS-89 [1]): 3.28 folds
Relative levels of lactic acid (compared with the control group) (glioma cells KNS-89; KNS-89, 0.8 mM, 12 h): 0.75 ± 0.11
Relative levels of lactic acid (compared with the control group) (glioma cells KNS-89; KNS-89, 0.8 mM, 24 h): 0.94 ± 0.16
Relative levels of lactic acid (compared with the control group) (glioma cells KNS-89; KNS-89, 0.8 mM, 36 h): 0.78 ± 0.09
Relative levels of lactic acid (compared with the control group) (glioma cells KNS-89; KNS-89, 1.6 mM, 12 h): 0.87 ± 0.03
Relative levels of lactic acid (compared with the control group) (glioma cells KNS-89; KNS-89, 1.6 mM, 24 h): 0.83 ± 0.20
Relative levels of lactic acid (compared with the control group) (glioma cells KNS-89; KNS-89, 1.6 mM, 36 h): 0.62 ± 0.10
levels of HK2, PFKFB3, PKM2 and LDH5 (Western Blot) (U87-MG): quickly and continuously down-regulated
ratio of ATP/ADP (CON = 1.00) (KNS-89 [2]; KNS-89, 0.8 mM or 1.6 mM, 36 h): 2.91 ± 0.03
ratio of NADH/NAD+ (CON = 1.00) (KNS-89 [2]; KNS-89, 0.8 mM or 1.6 mM, 36 h): 9.44 ± 0.75
ATP level (KNS-89 [2]; KNS-89, 36 h, vs control group): significantly increased
Relative level of mitochondrial membrane potential (compared with the control group) (C6 [3]; 12 h): 0.8 ± 0.14
Relative level of reactive oxygen species (compared with the control group) (C6 [3]; 12 h): 1.26 ± 0.04
Relative level of mitochondrial membrane potential (compared with the control group) (C6 [3]; 24 h): 0.6 ± 0.11
Relative level of reactive oxygen species (compared with the control group) (C6 [3]; 24 h): 1.89 ± 0.03
Relative level of mitochondrial membrane potential (compared with the control group) (C6 [3]; 48 h): 0.1 ± 0.09
Relative level of mitochondrial membrane potential (compared with the control group) (C6 [3]; 72 h): 0.1 ± 0.07
Relative content of GSH (compared with the control group) (C6 [4]): 0.69 ± 0.01
Relative content of GSSG (compared with the control group) (C6 [4]): 0.06 ± 0.00
Relative ratio of NADPH to NADP+ (compared with the control group) (C6 [4]): 0.14 ± 0.01
Relative content of GSH (compared with the control group) (KNS-89 [5]): 0.01 ± 0.00
Relative content of GSSG (compared with the control group) (KNS-89 [5]): 0.33 ± 0.02
Relative ratio of NADPH to NADP+ (compared with the control group) (KNS-89 [5]): 0.44 ± 0.04
Relative content of GSH (compared with the control group) (SHG-44): 0.67 ± 0.01
Relative content of GSSG (compared with the control group) (SHG-44): 0.38 ± 0.01
Relative ratio of NADPH to NADP+ (compared with the control group) (SHG-44): 0.39 ± 0.01
protein level of fructose-1,6-bisphosphatase 1 in kidney tissue (Western Blot) [6]: significantly up-regulated
viability at 800 µM (HCT-8; STG 100 μM, read-out: cell viability (Con = 100)): 85.9 ± 3.29%
cytotoxicity at 800 µM (HCT-8; sitagliptin 100 μM, read-out: cell viability inhibited): 41%
viability at 800 µM (Huh-7; STG 25 μM, read-out: cell viability (Con = 100)): 80.4 ± 3.63%
cytotoxicity at 800 µM (Huh-7; sitagliptin 25 μM, read-out: cell viability inhibited): 20%
fat coefficient (epididymal fat pad) ([7]; 6 weeks, model group 3.96±0.83%, normal group 1.58±0.68%): 2.81±0.81%
Lee's INDEX ([7]; 6 weeks, model group 353.28±9.64, normal group 337.05±9.96): 326.14±11.10
body weight after 6 weeks ([7]; agents in drinking water, FBP 300 mg/kg, STG 20 mg/kg, combination FBP 500 mg/kg+STG 20 mg/kg, model group 47.89±3.34): 45.93 ± 5.1 g
blood concentration ([8]; within 5 minutes): 770 mg/L
half-life [8]: 10 to 15 min
long-term effective dose for chronic epilepsy (chronic epilepsy in rats): 100 to 200 mg/kg/day
